| melting point | SMILES |
| --- | --- |
| 128 to 130 °C | O/N=C(\Cc1ccccc1)c1ccc2ccccc2c1 |
| 204 °C | O=C(NCCc1ccccc1)c1cc([N+](=O)[O-])cc([N+](=O)[O-])c1 |
| 123 °C | CCCCCCCC(=O)c1ccc(NC(C)=O)cc1 |
| 34 °C | CCCCN1C(=O)c2ccccc2C1=O |
| 116 to 120 °C | COc1cc(C)c2c(=O)c(-c3ccccc3)coc2c1 |
| 142 °C | N#Cc1c(-c2ccccc2)c2c(O)[nH]n(-c3ccccc3)c-2nc1=S |
| 133 to 134 °C | O=[N+]([O-])c1cc(/C=N\c2ccccc2)ccc1/C=N/c1ccccc1 |
| 113 °C | CC1CC(OC(=O)C(O)c2ccccc2)CC(C)(C)N1C (configuration not stated) |
| 181 °C | O=C(Nc1ccccc1)OC1C=CC=CC(OC(=O)Nc2ccccc2)C1 (configuration not stated) |
| 202 to 206 °C | O=C(O)c1cccc(-c2cccnc2)c1 |
| 134 °C | CC1(C)OC2(C)CCC1C(=O)OC2(c1ccccc1)c1ccccc1 (configuration not stated) |
| 176 °C | Cc1ccc(C(=O)C2=NN(c3ccccc3)C3C(=O)N(c4cccc([N+](=O)[O-])c4)C(=O)C23)cc1 (configuration not stated) |
| 114 °C | Cc1cc(=O)n(-c2ccccc2)n1C |
| 140 °C | CN(C)c1ccc(C=CC=O)cc1 |
| 73 to 87 °C | Cc1ccc(Sc2ccc(C(=O)c3ccccc3)cc2)cc1 |
| 189 °C | CCOC(=O)c1nn(-c2ccc(C)cc2)c(C)c1C(=O)c1noc(-c2ccc([N+](=O)[O-])cc2)c1S(=O)(=O)c1ccccc1 |
| 210 to 211 °C | O=C(Nc1ccccc1CCCCc1ccccc1NC(=O)c1ccccc1)c1ccccc1 |
| 84 to 85 °C | c1ccc(C23CC4CC(CC(C4)C2)C3)cc1 |
| 176 °C | COc1ccc(C(=O)c2noc(-c3ccc([N+](=O)[O-])cc3)c2S(=O)(=O)c2ccccc2)cc1 |
| 124 °C | CCC(C(=O)O)c1ccc(-c2ccccc2)cc1 (configuration not stated) |
| 167 °C | Clc1ccc(Cn2c(CN3CCCC3)nc3ccccc32)cc1 |
| 146 °C | OC(C1=CC(=C(c2ccccn2)c2ccccn2)C=C1)(c1ccccn1)c1ccccn1 |
| 262 °C | CC(=O)NCCNc1cc(=O)oc2ccccc12 |
| 166 °C | O=P(c1ccccc1)(c1ccccc1)C1CCCCC1 |

| melting point | SMILES |
| --- | --- |
| 48 °C | CC#CC1(O)CCCCC1 |
| 63 °C | c1ccc(-c2cccs2)nc1 |
| 145 °C | Nc1ccc(CC(=O)c2ccc(N)cc2)cc1 |
| 200 to 203 °C | Clc1ccc(-c2csc3nc4ccccc4n23)cc1 |
| 228 °C | CC=C(C(=CC)c1ccc(O)cc1)c1ccc(O)cc1 |
| -96 °C | CC(C)c1ccccc1 |
| 240 to 242 °C | Cc1cc(C(=O)O)c2ccccc2n1 |
| 107 to 108 °C | CC(C)CC1=CC(=Cc2ccc(-c3ccc(Br)cc3)o2)C(=O)O1 |
| 227 °C | CC1=NNC(=N)Nc2c1c(=O)n(-c1ccccc1)c1ccccc21 |
| 332 °C | O=C(Nc1ccc(C#Cc2ccc(NC(=O)c3ccccc3)cc2)cc1)c1ccccc1 |
| 89 to 90 °C | CC(=O)O[C@H]1CCCC2=CC(=O)CC[C@@]21C |
| 93.5 °C | CC(NNC(=O)c1ccccc1)c1ccccc1 (configuration not stated) |
| 198 °C | CCOC(=O)C1=C(N)n2nc(C(F)(F)F)nc2NC1c1ccc(Cl)cc1 (configuration not stated) |
| 51 to 54 °C | OCc1cccc(N2CCOCC2)c1 |
| 98 to 99 °C | O=C(C=Cc1ccc(-c2ccccc2)o1)c1ccccc1 |
| 300 to 302 °C | O=c1[nH]c2scc(-c3ccccc3)c2c(=O)n1-c1ccc(F)cc1 |
| 150 to 154 °C | CSCCC(NC(=O)c1ccccc1)C(=O)O (racemic) |
| 137 °C | CCCC(c1ccc(O)cc1)c1ccc(O)cc1 |
| 102 °C | S=C1SCN(Cc2ccccc2)CN1Cc1ccccc1 |
| 79 to 80 °C | CC(=O)c1ccc(OCc2ccc(F)cc2)cc1 |
| 235 °C | COc1ccc(-n2nc(C(=O)c3cccs3)s/c2=N/C(=O)c2ccccc2)cc1 |
| 137 to 141 °C | O=C(O)[C@@H]1Cc2ccccc2CN1C(=O)OCc1ccccc1 |
| 10 °C | Cc1ccccc1S(=O)(=O)Cl |

The next lines start with the compound.

| SMILES | melting point |
| --- | --- |
| CSc1nc2[nH]c(=S)[nH]c(=O)c2n1C | 289 to 290 °C |
| CN(C)S(=O)(=O)Cl | -13 °C |
| FC(Cl)=C(F)Cl | -130 °C |
| CC(C)CCCC(C)C1CCC2C3CC=C4CC(Cl)CCC4(C)C3CCC12C (configuration not stated) | 97 °C |
| O=C(O)c1csc(N2CCOCC2)n1 | 175 to 177 °C |
| O=CN(C=O)N(C=O)C=O | 180 to 183 °C |
| Clc1cc2c(c(Cl)c1Cl)Oc1cc(Cl)c(Cl)c(Cl)c1O2 | 285 °C |
| Fc1c(CBr)cccc1C(F)(F)F | 48 °C |
| C[Si]1(C)O[Si](C)(C)O[Si](C)(C)O[Si](C)(C)O[Si](C)(C)O[Si](C)(C)O[Si](C)(C)O[Si](C)(C)O1 | 31.5 °C |
| COc1cc(N)c(C(C)=O)cc1OC | 106 °C |
| COc1cc(C=C2SC(=S)N(CNc3cccc([N+](=O)[O-])c3)C2=O)ccc1O | 214 to 215 °C |
| CC(=O)Nc1ccc(C)c(NS(=O)(=O)C(F)(F)F)c1 | 176 °C |
| CC(C)(C)c1cc(C(F)(F)F)n[nH]1 | 178 to 180 °C |
| CCCCCC(O)CCCC (configuration not stated) | 8 °C |
| CC12C(=O)OC(=O)C1(C)C1CCC2O1 (configuration not stated) | 218 °C |
| COC(=O)c1c(C=O)ccc(OC)c1OC | 83 °C |
| O=C1CCCCO1 | -13 °C |
| O=CC(Cl)C=O | 140 to 145 °C |
| CCC(CO)NC(=O)C1C=C2c3cccc4c3c(cn4C)CC2N(C)C1 (configuration not stated) | 195 °C |
| Nc1ncnc2c1ncn2C1OC(COP(=O)(O)O)C(O)C1O (configuration not stated) | 213 °C |
| O=[N+]([O-])c1cccc(F)c1CBr | 52 °C |
| CCCCCCCCCCCCC(C)CC (configuration not stated) | -22 °C |
| Cc1cc(Br)cc(C)c1N=C=S | 79.5 °C |
| Clc1cccc2ccccc12 | -2.5 °C |
| CON=C(C(=O)OC)c1ccccc1COc1ccccc1C | 102 °C |
| Cc1nc2ccccn2c1CO | 157 to 158 °C |
| Cc1c(Cl)cc(Cl)c(O)c1Cl | 46 °C |

| SMILES | melting point |
| --- | --- |
| COC(=O)c1cc(I)ccc1O | 77 °C |
| Brc1cc(Br)c(Oc2cc(Br)c(Br)cc2Br)cc1Br | 160 to 163 °C |
| COC(=O)C1(C)CCC(C(=O)O)C1(C)C (configuration not stated) | 74 to 78 °C |
| CCOC(=O)CC(=O)c1cc(OC)c(OC)c(OC)c1 | 86 to 91 °C |
| CC(=O)c1cc(Cl)ccc1O | 53 to 56 °C |
| CCCF | -159 °C |
| CC(C(=O)O)=C(C)c1cccc(C)c1 | 163 °C |
| O=CNNC=O | 156 °C |
| CC1CC(C)CC(O)C1 (configuration not stated) | 11.6 °C |
| Nc1ccc(Cl)cc1C(=O)O | 209 to 213 °C |
| NC(=S)c1ccncc1 | 201 °C |
| CC1C(=O)C23C4CC5C(C)(C)CCC(O)C56COC(CC1C2OC(C)(C)O4)C63 (configuration not stated) | 204 °C |
| CCC(C)CCCCO (configuration not stated) | -104 °C |
| COC(=O)c1csc(C=O)c1 | 115 °C |
| NC(=O)C=CC(N)=O | 276 °C |
| COC1=C(C(C)C)C(=O)C2=C(C1=O)C1(C)CCCC(C)(C)C1CC2O (configuration not stated) | 138 °C |
| CC(=O)OCC(=O)C1CCC2C3CCC4=CC(=O)CCC4(C)C3CCC12C (configuration not stated) | 157 °C |
| CSc1sc(C(=O)O)c(-c2cccc(Cl)c2)c1C#N | 209 to 211 °C |
| CCC1(C2=CC3CCC(C2)C3)C(=O)NC(=O)NC1=O (configuration not stated) | 213 °C |
| CC(C)(C)c1cc(O)c(O)c(C(C)(C)C)c1 | 96 to 99 °C |
| O=C(O)c1ccc(Br)c(C(=O)O)c1 | 297 to 299 °C |
| Cc1ccc(C(c2ccc(C)o2)c2cc(Cl)ccc2O)o1 | 85 °C |
| COC(=O)CCc1ccc(OC)c(O)c1 | 78 °C |
| O=C(Cl)c1ccccc1I | 30 to 32 °C |
| CCCCCCCCCCCCCC(C)C | -7 °C |
| N#Cc1cccc(F)n1 | 34 °C |
| O=C(O)c1cccc(OOCl)c1 | 92 °C |

| SMILES | melting point |
| --- | --- |
| Oc1cc(C(F)(F)F)nc2cc(Cl)ccc12 | 280 °C |
| CC(C)C[C@H](N)[C@@H](O)CC(=O)O | 209 °C |
| COC(=O)c1cc(OC)c(OC)cc1N | 129 °C |
| CC(=O)Oc1c(C)cc(O)c(C)c1C | 108 to 109 °C |
| CC(C)(C)OC(=O)Nc1cc(O)cc(C(=O)O)c1 | 150 to 151 °C |
| O=Cc1ccc(F)cc1Cl | 62 °C |
| CC(C)SC1OC(CO)C(O)C(O)C1O (configuration not stated) | 121 °C |
| COc1ccc(C=O)cc1[N+](=O)[O-] | 99 °C |
| OCCOCCOCCOCCOCCOCCO | 6 °C |
| Sc1nc2cccnc2s1 | 300 °C |
| COc1cc2c(cc1O)CCNC2C (configuration not stated) | 222 °C |
| CC(C)COC(=O)c1ccc(C(=O)OCC(C)C)cc1 | 55 °C |
| Oc1ccnc(O)c1 | 278 °C |
| COC1C(O)C(C)OC(OC2CCC3(C=O)C(CCC4C3CCC3(C)C(C5=CC(=O)OC5)CCC43O)C2)C1O (configuration not stated) | 162 °C |
| CN(C)C(=S)Cl | 42.5 °C |
| CCOC(O)C(OC(C)=O)C(OC(C)=O)C(OC(C)=O)C(COC(C)=O)OC(C)=O (configuration not stated) | 132 °C |
| CN(C)CCc1c[nH]c2ccc(O)cc12 | 146 °C |
| Cc1nn(Cc2ccc(C(=O)O)o2)c(C)c1Br | 207 to 208 °C |
| C=CCc1cc(Cl)ccc1O | 48 °C |
| CCCOC(=O)c1cc(O)c(O)c(O)c1 | 148 °C |
| CC(=O)c1ccc[nH]1 | 90 °C |
| Oc1cc(Cl)c(Cl)c(Cl)c1 | 101 °C |
| Nc1c(Cl)cc(C(F)(F)F)cc1[N+](=O)[O-] | 66 to 68 °C |
| CN(C)c1ccc(-c2c(C#N)c(N)n(N)c(=O)c2C#N)cc1 | 328 to 330 °C |
| O=C(O)C=CC(=O)Nc1cccc(Cl)c1 | 198 °C |
| Cc1cccc(C(=O)CC#N)c1 | 73 to 75 °C |

Source: a melting point compilation (Tetko et al.)
